In patent publication US8592456B2 (4SC Discovery GmbH, priority 2011, dated 2013):
Where two headings read alike, the source gives them in different places.

Key:
Format in all cases: cell-based
[1] = test system: IL-17FF; assay: IL-17FF production by PHA-stimulated human PBMC (IL-17F ELISA)
Procedure: (§1) Analysis of Proliferation of and Cytokine Production by Human PBMC Stimulated with PHA
(§2) Peripheral blood mononuclear cells (PBMC) from healthy human donors were purified using Accuspin™ System-Histopaque-1077 (Sigma) according to the protocol recommended by the manufacturer. Purified PBMC were then washed twice with phosphate-buffered saline (PBS) and resuspended in RPMI1640 culture medium supplemented with 10% dialyzed heat inactivated fetal calf serum, 1.5 mM L-glutamine, 100 U penicillin/ml, and […] (all from PAN Biotech, Aidenbach, Germany). For stimulation, PBMC were seeded at 1×10^5 cells/well, activated with 2 μg/ml phytohaemagglutinin (PHA, Sigma) and incubated with the test compounds for 48 hours. IL-17A, IL-17F and INF-γ were then determined in the culture supernatant using a Luminex BioPlex system, following the manufacturer's instructions (BioRad, Munich, Germany). For screening, compounds were used at 10, 1, 0.1 and 0.01 μM. To determine the IC50, compounds were titrated semilogarithmically.
(§3) Cytokines were determined in the aforementioned culture supernatant using the following methods: IL-17AA/AF was measured using the Luminex BioPlex system (BioRad, Munich, Germany); IL-17AA using the human homodimer IL-17A ELISA Ready Set Go Kit from eBioscience (Frankfurt, Germany); IL-17FF using the human IL-17F ELI-Pair from Hölzel DiagnosticaGmBH (Köln, Germany); and IFN-γ using the OptElA human IFN-g ELISA from BD Bioscience (Heidelberg, Germany), all following the manufacturer's instructions.

[2] = test system: IFNγ; assay: IFN-γ production by PHA-stimulated human PBMC (IFN-g ELISA); settings: 48 h
Procedure: as §1
as §2, with “For stimulation, PBMC were seeded at 1×10^5 cells/well, activated with 2 μg/ml phytohaemagglutinin (PHA, Sigma) and incubated with the test compounds for 48 hours.” left out, “For screening, compounds were used at 10, 1, 0.1 and 0.01 μM. To determine the IC50, compounds were titrated semilogarithmically.” left out
as §3

[3] = test system: PBMC (T cell proliferation); assay: T cell proliferation assay, PHA-stimulated human PBMC (BrdU ELISA)
Method in brief: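 Healthy-donor human PBMC, Ficoll-isolated, seeded 1×10^5 cells/well in RPMI1640 with 10% dialyzed FCS, stimulated with 2 μg/ml PHA alongside test compound. Proliferation read after 48 hours by BrdU ELISA.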

[4] = human PBMC, 2 μg/ml PHA, 48 hours, BrdU, read-out: D: IC50 (Tcell proliferation)

SMILES | IC50 [3, 4] [µM] | other results
CCOC(=O)c1c(-c2c(F)cccc2Cl)noc1-c1cnn(-c2ccccc2Cl)c1C(F)(F)F [Example B-33, ethyl 3-(2-chloro-6-fluorophenyl)-5-(1-(2-chlorophenyl)-5-(trifluoromethyl)-1H-pyrazol-4-yl)isoxazole-4-carboxylate] | – | IC50 ([1]; Homo sapiens, PBMC, 48 h, read-out: B: IC50 (IL-17FF)): 0.1 to 1 µM; IC50 ([2]; read-out: C: IC50 (IFNγ)): 0.1 to 1 µM; IC50 ([3]; Homo sapiens, 48 h, read-out: D: IC50 (Tcell proliferation)): 0.1 to 1 µM
Cc1csc(-c2c(-c3c(F)cccc3Cl)noc2-c2cnn(-c3cccc(Cl)c3)c2C(F)(F)F)n1 [Example I-4] | – | IC50 ([1]; Homo sapiens, PBMC, 48 h, read-out: IC50 (IL-17FF)): < 0.01 µM; IC50 ([2]; read-out: IC50 (IFNγ)): < 0.01 µM; IC50 ([3]; Homo sapiens, 48 h, read-out: IC50 (Tcell proliferation)): < 0.01 µM
O=C(O)c1c(-c2c(F)cccc2Cl)noc1-c1cnn(-c2cccc(Cl)c2)c1C(F)(F)F [Example B-18, 3-(2-chloro-6-fluorophenyl)-5-(1-(3-chlorophenyl)-5-(trifluoromethyl)-1H-pyrazol-4-yl)isoxazole-4-carboxylic acid] | – | IC50 ([1]; human PBMC, 2 μg/ml PHA, 48 hours, read-out: B: IC50 (IL-17FF)): 1 to 10 µM
CNC(=O)c1c(-c2c(F)cccc2Cl)noc1-c1cnn(-c2cccnc2)c1C(F)(F)F [Example B-55, 3-(2-chloro-6-fluorophenyl)-N-methyl-5-(1-(pyridin-3-yl)-5-(trifluoromethyl)-1H-pyrazol-4-yl)isoxazole-4-carboxamide] | 1 to 10 | –
COC(=O)c1c(-c2cccc(F)c2)noc1-c1cnn(-c2cccc(F)c2)c1C(F)(F)F [Example 106, methyl 3-(3-fluorophenyl)-5-(1-(3-fluorophenyl)-5-(trifluoromethyl)-1H-pyrazol-4-yl)isoxazole-4-carboxylate] | 1 to 10 | –
O=C(Nc1c(-c2c(F)cccc2Cl)noc1-c1cnn(-c2cccc(F)c2)c1C(F)(F)F)C(F)(F)F [Example B-22, N-(3-(2-chloro-6-fluorophenyl)-5-[1-(3-fluorophenyl)-5-(trifluoromethyl)-1H-pyrazol-4-yl]-1,2-oxazol-4-yl)-2,2,2-trifluoroacetamide] | 1 to 10 | –
NC(=S)c1c(-c2c(F)cccc2Cl)noc1-c1cnn(-c2ccccc2F)c1C(F)(F)F [Example B-102, 3-(2-chloro-6-fluorophenyl)-5-(1-(2-fluorophenyl)-5-(trifluoromethyl)-1H-pyrazol-4-yl)isoxazole-4-carbothioamide] | 0.1 to 1 | –
COC(=O)c1c(-c2c(F)cccc2Cl)noc1-c1cnn(-c2ccccc2I)c1C(F)(F)F [Example 88, methyl 3-(2-chloro-6-fluorophenyl)-5-(1-(2-iodophenyl)-5-(trifluoromethyl)-1H-pyrazol-4-yl)isoxazole-4-carboxylate] | 1 to 10 | –
Fc1ccccc1-n1ncc(-c2onc(-c3c(F)cccc3Cl)c2-c2nccs2)c1C(F)(F)F [IB-30, 3-(2-chloro-6-fluorophenyl)-5-(1-(2-fluorophenyl)-5-(trifluoromethyl)-1H-pyrazol-4-yl)-4-(thiazol-2-yl)isoxazole] | – | IC50 ([3]; PHA-stimulated human PBMC, 48 hours, BrdU, column D, activity classes 1-4, read-out: IC50 (Tcell proliferation)): 0.01 to 0.1 µM
COC(=O)c1c(-c2c(F)cccc2Cl)noc1-c1cnn(-c2cccc(F)c2)c1 [Example B-21, methyl 3-(2-chloro-6-fluorophenyl)-5-(1-(3-fluorophenyl)-1H-pyrazol-4-yl)isoxazole-4-carboxylate] | 0.1 to 1 | –
CCOC(=O)c1c(-c2ccc(Cl)cc2)noc1-c1cnn(-c2cccc(Cl)c2)c1C(F)(F)F [Example 77, ethyl 3-(4-chlorophenyl)-5-(1-(3-chlorophenyl)-5-(trifluoromethyl)-1H-pyrazol-4-yl)isoxazole-4-carboxylate] | 1 to 10 | –
O=CNc1c(-c2c(F)cccc2Cl)noc1-c1cnn(-c2cccc(Cl)c2)c1C(F)(F)F [Example B-48, N-(3-(2-chloro-6-fluorophenyl)-5-(1-(3-chlorophenyl)-5-(trifluoromethyl)-1H-pyrazol-4-yl)isoxazol-4-yl)formamide] | 1 to 10 | –
COC(=O)c1c(-c2ccccc2)noc1-c1cnn(-c2ccccc2F)c1C(F)(F)F [Example 61, methyl 5-(1-(2-fluorophenyl)-5-(trifluoromethyl)-1H-pyrazol-4-yl)-3-phenylisoxazole-4-carboxylate] | 1 to 10 | –
